In ChEMBL document CHEMBL1201862, “PubChem BioAssay data set” (2004):
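Dose response: 5 concentrations. Exposure: 48 h. Format: 96-well plates. Endpoint: linear interpolation; highest concentration if not reached. GI50 marks 50% less growth.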 Activity calls are given as the source filed them. Cut-off read from the data, not from the text of the source: active = GI50 up to about 1.1 µM and inactive = higher.

Experiments:
Assay in all cases: DTP human tumour cell line panel, 48 h
A549 = system: A549
MDA-MB-231 = system: MDA-MB-231
TK-10 = system: TK-10
IGROV-1 = system: IGROV-1
RPMI-8226 = system: RPMI-8226
MDA-N = system: MDA-N
HCT-15 = system: HCT-15
HCC 2998 = system: HCC 2998
EKVX = system: EKVX
ACHN = system: ACHN
NCI-H460 = system: NCI-H460
HOP-92 = system: HOP-92
MCF7 = system: MCF7
786-0 = system: 786-0
LOX IMVI = system: LOX IMVI
Malme-3M = system: Malme-3M
KM12 = system: KM12
HOP-62 = system: HOP-62
OVCAR-4 = system: OVCAR-4
K562 = system: K562
M14 = system: M14
SK-MEL-2 = system: SK-MEL-2
NCI/ADR-RES = system: NCI/ADR-RES
T47D = system: T47D
OVCAR-8 = system: OVCAR-8
UACC-62 = system: UACC-62
MDA-MB-435 = system: MDA-MB-435
Hs-578T = system: Hs-578T
OVCAR-5 = system: OVCAR-5
SF-268 = system: SF-268
SN12C = system: SN12C
SK-MEL-5 = system: SK-MEL-5
A498 = system: A498
HL-60 = system: HL-60
HCT-116 = system: HCT-116
CAKI-1 = system: CAKI-1
SNB-75 = system: SNB-75
UACC-257 = system: UACC-257
SK-OV-3 = system: SK-OV-3
NCI-H23 = system: NCI-H23
OVCAR-3 = system: OVCAR-3
COLO 205 = system: COLO 205
UO-31 = system: UO-31
SK-MEL-28 = system: SK-MEL-28
RXF 393 = system: RXF 393
CCRF-CEM = system: CCRF-CEM
DU-145 = system: DU-145
BT-549 = system: BT-549
PC-3 = system: PC-3
SR = system: SR
SW-620 = system: SW-620
SNB-19 = system: SNB-19
HT-29 = system: HT-29
NCI-H226 = system: NCI-H226
SF-295 = system: SF-295
NCI-H522 = system: NCI-H522
U-251 = system: U-251
SF-539 = system: SF-539
MOLT-4 = system: MOLT-4

Measured: GI50

O=c1c2ccccc2nc(-c2ccccc2)n1O
41.1 µM: HCT-15
inactive: A549 71.8 µM | MDA-MB-231 > 100 µM | TK-10 > 100 µM | IGROV-1 56.8 µM | RPMI-8226 28.6 µM | MDA-N > 100 µM | HCC 2998 > 100 µM | EKVX > 100 µM | ACHN > 100 µM | NCI-H460 64.1 µM | HOP-92 22.9 µM | MCF7 95.9 µM | 786-0 > 100 µM | LOX IMVI 76.6 µM | Malme-3M > 100 µM | KM12 67 µM | HOP-62 5.28 µM | OVCAR-4 55.5 µM | K562 30.9 µM | M14 95.7 µM | SK-MEL-2 > 100 µM | NCI/ADR-RES 32.4 µM | T47D 45.6 µM | OVCAR-8 51.5 µM | UACC-62 > 100 µM | MDA-MB-435 > 100 µM | Hs-578T > 100 µM | OVCAR-5 > 100 µM | SF-268 > 100 µM | SN12C > 100 µM | SK-MEL-5 70.8 µM | A498 > 100 µM | HL-60 54 µM | HCT-116 55.8 µM | CAKI-1 8.47 µM | SNB-75 87.3 µM | UACC-257 > 100 µM | SK-OV-3 > 100 µM | NCI-H23 71 µM | OVCAR-3 51.6 µM | COLO 205 > 100 µM | UO-31 8.53 µM | SK-MEL-28 > 100 µM | RXF 393 31.3 µM | CCRF-CEM 19.6 µM | DU-145 > 100 µM | BT-549 > 100 µM | PC-3 > 100 µM | SR 23.3 µM | SW-620 > 100 µM | SNB-19 > 100 µM | HT-29 > 100 µM | NCI-H226 73.5 µM | SF-295 35.3 µM | NCI-H522 > 100 µM | U-251 > 100 µM | SF-539 > 100 µM

COc1ccc2c(c1)/C(=C\c1c(Cl)[nH]c3cc(C)c(OC)cc13)C(=O)N2
0.467 µM: HCT-15
inactive: A549 1.19 µM | MDA-MB-231 2.93 µM | TK-10 1.64 µM | HCC 2998 1.64 µM | EKVX 2.1 µM | HOP-92 2.14 µM | 786-0 1.19 µM | Malme-3M 1.28 µM | HOP-62 4.44 µM | OVCAR-4 1.45 µM | T47D 12.9 µM | OVCAR-8 1.96 µM | OVCAR-5 2.55 µM | SN12C 2.09 µM | CAKI-1 1.46 µM | UACC-257 2.63 µM | UO-31 3.13 µM | SK-MEL-28 10.6 µM | DU-145 1.66 µM | SW-620 1.22 µM | SNB-19 1.39 µM | NCI-H226 6.04 µM | NCI-H522 1.19 µM
active: MOLT-4 893 nM | IGROV-1 0.467 µM | RPMI-8226 0.942 µM | MDA-N 0.23 µM | ACHN 1.05 µM | NCI-H460 0.76 µM | MCF7 0.41 µM | LOX IMVI 0.753 µM | KM12 0.467 µM | K562 0.522 µM | M14 0.698 µM | SK-MEL-2 0.713 µM | NCI/ADR-RES 0.811 µM | UACC-62 0.434 µM | MDA-MB-435 0.198 µM | Hs-578T 0.667 µM | SF-268 0.986 µM | SK-MEL-5 0.69 µM | A498 0.83 µM | HL-60 0.435 µM | HCT-116 0.979 µM | SNB-75 0.984 µM | SK-OV-3 0.423 µM | NCI-H23 0.593 µM | OVCAR-3 0.347 µM | COLO 205 1.03 µM | RXF 393 0.891 µM | CCRF-CEM 0.726 µM | BT-549 0.679 µM | PC-3 0.807 µM | SR 0.357 µM | HT-29 0.889 µM | SF-295 0.396 µM | U-251 0.653 µM | SF-539 0.266 µM
